Drawing on EP4782453A1 (Beyang Therapeutics Co., Ltd., priority 2023, dated 2025), this text covers IC50 for 24 molecules.

Experiment [1] concerns MOLM-13 (carrying MLL-AF9). Put plainly: Inhibition of proliferation of human tumor cells (Alamar Blue, 7 days), MOLM-13. Type of experiment: cell-based. Particulars: Homo sapiens, MOLM-13 cells (carrying MLL-AF9), method calls the value GI50. An excerpt:
Experimental Example 2: Evaluation of Inhibitory Activity of Compounds Against Proliferation of Human Tumor Cells
• Human acute lymphoblastic leukemia cells MV-4-11, purchased from American Type Culture Collection, Catalog Number: CRL-9591; • Human acute myeloid leukemia cells MOLM-13, purchased from COBIOER BIOSCIENCES CO., LTD, Catalog Number: CBP60678; • Human acute myeloid leukemia cells KG-1a, purchased from American Type Culture Collection, Catalog Number: CCL-246.1; • Inverted Microscope, purchased from Olympus Tokyo; • Countess™ Automated Cell Counter, purchased from Invitrogen, Model: C10281; and • Multilabel Reader, purchased from Bio-Tek, Model: Synergy HT.
MV-4-11 cells were cultured in an IMDM medium containing 10% fetal bovine serum, KG-a cells were cultured in an IMDM medium containing 20% fetal bovine serum, or MOLM-13 cells were cultured in an RPMI-1640 medium containing 20% fetal bovine serum, each supplemented with 100 U·mL^-1 penicillin and 100 µg·mL^-1 streptomycin. These cells were cultured at 37°C with 5% CO2. The suspensions of individual cell lines were prepared in their respective media and seeded into 96-well plates at a density of 4,000 cells/well for MV-4-11 and MOLM-13 cells, or 3,000 cells/well for KG-1a cells. On the day of the experiment, a compound stock solution was diluted in a 3-fold or 4-fold gradient using DMSO. Each gradient-diluted stock solution was then further diluted 250-fold with a complete medium to prepare a series of working solutions at different concentrations. Subsequently, 100 µL of working solution (containing a 2-fold concentration series of the test compound) was added to each well, with duplicate wells set up for each concentration.
Seven days after compound addition (on Day 7), an Alamar Blue assay reagent (MCE, HY-111391 / CS-0040317) was added to measure the fluorescence intensity in each well. Wells containing the cells in the growth medium supplemented with 0.1% DMSO (Day 7) served as high-read control wells. The readouts from the wells containing the cells in the growth medium supplemented with 0.1% DMSO on the day of compound addition (Day 0) served as low-reading control well. GraphPad Prism software was used to calculate the concentration required to inhibit 50% of cell proliferation (GI50), which serves as a cell proliferation inhibition activity index.
In general terms: Resazurin is reduced to fluorescent resorufin, in cell work by metabolically active cells.

For the next experiment, the target named is T1, Menin-MLL (Homo sapiens, UniProt O00255).
T1 construct: His-Menin (M1-L615 end); purchased BIORTUS BP9210
T1 sequence (O00255 1-615 isoform O00255-1): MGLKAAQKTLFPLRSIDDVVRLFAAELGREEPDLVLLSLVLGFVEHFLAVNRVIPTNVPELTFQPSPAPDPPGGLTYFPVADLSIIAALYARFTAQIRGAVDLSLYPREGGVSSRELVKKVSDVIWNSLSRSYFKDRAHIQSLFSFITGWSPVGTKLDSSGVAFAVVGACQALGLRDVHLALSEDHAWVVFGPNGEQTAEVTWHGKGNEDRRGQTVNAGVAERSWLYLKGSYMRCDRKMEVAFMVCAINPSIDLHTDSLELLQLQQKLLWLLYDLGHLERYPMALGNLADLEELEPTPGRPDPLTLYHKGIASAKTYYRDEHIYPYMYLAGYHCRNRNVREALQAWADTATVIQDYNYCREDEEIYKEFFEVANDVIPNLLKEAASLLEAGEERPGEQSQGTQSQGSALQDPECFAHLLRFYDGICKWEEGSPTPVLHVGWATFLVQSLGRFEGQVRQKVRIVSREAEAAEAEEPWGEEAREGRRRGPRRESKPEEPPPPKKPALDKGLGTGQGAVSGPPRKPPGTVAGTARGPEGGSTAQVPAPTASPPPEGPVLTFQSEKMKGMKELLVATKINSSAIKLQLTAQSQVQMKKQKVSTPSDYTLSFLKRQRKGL
Briefly: Inhibitory activity against Menin-MLL binding (fluorescence polarization). The settings on record: 150 nM His-Menin, 15 nM FITC-MLL, 25°C for 60 min. The gist of the method: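 Fluorescence polarization competition: compound and 150 nM His-tagged menin (residues M1-L615) sit 15 min at 25 °C in pH 7.5 HEPES buffer with NaCl, DTT and BSA; 15 nM FITC-labelled MLL peptide then binds for 60 min. IC50 fitted sigmoidally from mP values, duplicate wells.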

[2] abbreviates: fluorescence polarization, read-out: Menin-MLL IC50.

Structures are written as SMILES. Where two headings read alike, the source gives them in different places.

One may read the IC50 as the midpoint of a concentration-inhibition curve. With `CCN(C(=O)c1cc(F)ccc1-c1cc(C2CN([C@H](CCCN(C)CCOC)C(C)C)C2)cn2c(C)ncc12)C(C)C` [Example 510], the IC50 came out at 9.9 nM in experiment [1] (168 h) and 0.9 nM at Menin-MLL (setting [2]).
With `CCN(C(=O)c1cc(F)ccc1-c1cc(C2CN([C@H](CN3CCN(CCOC)CC3)C(C)C)C2)cn2c(C)ncc12)C(C)C` [Example 430], the IC50 was 46 nM in experiment [1] (168 h) and 8.4 nM at Menin-MLL (setting [2]).
For `CCN(C(=O)c1cc(F)ccc1-c1cc(C2CN([C@H](CCCN3CCC(S(C)(=O)=O)CC3)C(C)C)C2)cc2c1cnn2C)C(C)C` [Example 406], the 50% inhibitory concentration (IC50) in experiment [1] (168 h) amounted to 37 nM; at Menin-MLL (setting [2]) it was 7 nM.
The like results for `CCN(C(=O)c1cc(F)ccc1-c1cc(C2CN([C@H](CCCN3CC4(C3)CN(C(C)=O)C4)C(C)C)C2)cc2c1cnn2C)C(C)C` [Example 409] were, in that order, 31 nM and 4 nM.
For the molecule `CCN(C(=O)c1cc(F)ccc1-c1cc(C2CN([C@H](CCCN3CCN(CCO)CC3)C(C)C)C2)cc2c1cnn2C)C(C)C` [Example 400-2], the IC50 in experiment [1] (168 h) was 12 nM; at Menin-MLL (setting [2]), 3.7 nM.
Turning to `COC[C@H]1CN(CCC[C@H](C(C)C)N2CC(c3cc(-c4ccc(F)cc4C(=O)N(C(C)C)C(C)C)c4cnc(C)n4c3)C2)CCN1` [Example 504-2, 5-fluoro-2-(6-{1-[(3R)-6-[(3R)-3-(methoxymethyl)piperazin-1-yl]-2-methylhexan-3-yl]azacyclobutan-3-yl}-3-methylimidazo[1,5-a]pyridin-8-yl)-N,N-di(isopropyl)benzamide], the IC50 in experiment [1] (168 h) turned out to be 13 nM; at Menin-MLL (setting [2]), 1.2 nM.
In the same order, the values of `CCN(C(=O)c1cc(F)ccc1-c1cc(C2CN([C@H](CCCN3CCNCC3)C(C)C)C2)cn2c(C)ncc12)C(C)C` [Example 472] are 24 nM and 1.5 nM.
`CCN(C(=O)c1cc(F)ccc1-c1cc(OC2CN(C(CCCN3CCN(CCO)CC3)C(C)C)C2)n2c(C)cncc12)C(C)C` (stereo not drawn) [Example 488, N-ethyl-5-fluoro-2-{6-[(1-{6-[4-(2-hydroxyethyl)piperazin-1-yl]-2-methylhexan-3-yl}azacyclobutan-3-yl)oxy]-4-methylpyrrolo[1,2-a]pyrazin-8-yl}-N-(isopropyl)benzamide]: the IC50 came to 19 nM in experiment [1] (168 h) and 3.4 nM on Menin-MLL (setting [2]).
For `CCC(=O)NC1CCN(CCC[C@H](C(C)C)N2CC(c3cc(-c4ccc(F)cc4C(=O)N(CC)C(C)C)c4cnc(C)n4c3)C2)CC1` [Example 425], the IC50 in experiment [1] (168 h) came out at 9.9 nM; on Menin-MLL (setting [2]), 2.7 nM.
Turning to `CCN(C(=O)c1cc(F)ccc1-c1cc(C2CN([C@H](CCCN3CCN(CCF)CC3)C(C)C)C2)cc2c1cnn2C)C(C)C` [Example 410], the results for the IC50 (in experiment [1] (168 h); on Menin-MLL (setting [2])) were 37 nM and 5.8 nM, respectively.
With `CCN(C(=O)c1cc(F)ccc1-c1cc(C2CN([C@H](CCCN3CCN(CCO)CC34COC4)C(C)C)C2)cn2c(C)ncc12)C(C)C` [Example 482, N-ethyl-5-fluoro-2-(6-{1-[(3R)-6-[8-(2-hydroxyethyl)-2-oxa-5,8-diazaspiro[3.5]non-5-yl]-2-methylhexan-3-yl]azacyclobutan-3-yl}-3-methylimidazo[1,5-a]pyridin-8-yl)-N-(isopropyl)benzamide], the IC50 in experiment [1] (168 h) amounted to 36 nM; on Menin-MLL (setting [2]), 2.4 nM.
Take `CCN(C(=O)c1cc(F)ccc1-c1cc(C2CN([C@H](CN3CCN(C(CO)CO)CC3)C(C)C)C2)cc2c1cnn2C)C(C)C` [Example 419]: the IC50 in experiment [1] (168 h) amounted to 85 nM; at Menin-MLL (setting [2]), 8.1 nM.
In the same order, the values of `CCN(C(=O)c1cc(F)ccc1-c1cc(C2CN([C@H](CCCN3CCC(NC(C)=O)CC3)C(C)C)C2)cc2c1cnn2C)C(C)C` [Example 405] are 7.2 nM and 1.6 nM.
The like results for `Cc1ncc2c(-c3ccc(F)cc3C(=O)N(CC(F)F)C(C)C)cc(C3CN([C@H](CCCN4CCN(CCO)CC4)C(C)C)C3)cn12` [Example 459-1, N-(2,2-difluoroethyl)-5-fluoro-2-(6-{1-[(3R)-6-[4-(2-hydroxylethyl)piperazin-1-yl]-2-methylhexan-3-yl]azacyclobutan-3-yl}-3-methyl-imidazo[1,5-a]pyridin-8-yl)-N-(isopropyl)benzamide] were, in that order, 4.7 nM and 1.9 nM.
In the same order, the values of `CCN(C(=O)c1cc(F)ccc1-c1cc(C2CN([C@H](CC[C@@H]3COCCN3)C(C)C)C2)cn2c(C)ncc12)C(C)C` [Example 449-1, N-ethyl-5-fluoro-2-(3-methyl-6-{1-[(3R)-4-methyl-1-[(3R)-morpholin-3-yl]pentan-3-yl]azacyclobutan-3-yl}imidazo[1,5-a]pyridin-8-yl)-N-(isopropyl)benzamide] are 6.1 nM and 2.6 nM.
Turning to `CCN(C(=O)c1cc(F)ccc1-c1cc(C2CN([C@H](CCCN3CCN(CCF)CC3)C(C)C)C2)cn2c(C)ncc12)C(C)C` [Example 395], the concentration for half-maximal inhibition (IC50) in experiment [1] (168 h) is 6.1 nM; at Menin-MLL (setting [2]) it was 2 nM.
For the molecule `Cc1ncc2c(-c3ccc(F)cc3C(=O)N(C)C(C)C)cc(C3CN(C(CCCN4CCN(C)CC4)C(C)C)C3)cn12` (stereo not drawn) [Example 436, 5-fluoro-N-methyl-2-(3-methyl-6-{1-[2-methyl-6-(4-methylpiperazin-1-yl)hexan-3-yl]azacyclobutan-3-yl}imidazo[1,5-a]pyridin-8-yl)-N-(isopropyl)benzamide], the results for the half-maximal inhibitory concentration (IC50) (in experiment [1] (168 h); at Menin-MLL (setting [2])) were 42 nM and 8.3 nM, respectively.
On to `CCN(C(=O)c1cc(F)ccc1-c1cc(C2CN([C@H](CN3CCN(C[C@H](O)CO)CC3)C(C)C)C2)cc2c1cnn2C)C(C)C` [Example 440], for which the IC50 turned out to be 56 nM in experiment [1] (MOLM-13, 168 h) and 8.9 nM on Menin-MLL (Menin-MLL IC50, fluorescence polarization).
As to `Cc1ncc2c(-c3ccc(F)cc3C(=O)N3CCOC[C@H]3C)cc(C3CN([C@H](CCCN4CCN(CC(F)F)CC4)C(C)C)C3)cn12` [Example 364], the IC50 is 3.9 nM in experiment [1] (168 h) and 5.1 nM at Menin-MLL (setting [2]).
`CCN(C(=O)c1cc(F)ccc1-c1cc(C2CN([C@H](CCCN3CCN(C(=O)C4(C#N)COC4)CC3)C(C)C)C2)cn2c(C)ncc12)C(C)C` [Example 495]: the half-inhibitory concentration (IC50) in experiment [1] (168 h) turned out to be 27 nM; at Menin-MLL (setting [2]) it was 2.4 nM.
In the same order, the values of `CCN(C(=O)c1cc(F)ccc1-c1cc(C2CN([C@H](CCCN3CCN(C)[C@H](COC)C3)C(C)C)C2)cn2c(C)ncc12)C(C)C` [Example 509] are 7.2 nM and 1.1 nM.
For the molecule `CCN(C(=O)c1cc(F)ccc1-c1cc(C2CN(C(CC[C@@H]3COCCN3)C(C)C)C2)cc2c1cnn2C)C(C)C` (stereo partly drawn) [Example 458, N-ethyl-5-fluoro-2-[1-methyl-6-(1-{4-methyl-1-[(3R)-morpholin-3-yl]pentan-3-yl}azacyclobutan-3-yl}-1H-indazol-4-yl)-N-(isopropyl)benzamide], the IC50 in experiment [1] (168 h) was found to be 31 nM; at Menin-MLL (setting [2]) it was 6.4 nM.
As for `CCN(C(=O)c1cc(F)ccc1-c1cc(C2CN(C(CCCN3CCN(C)C(COC)C3)C(C)C)C2)cn2c(C)ncc12)C(C)C` (stereo not drawn) [Example 508], the IC50 in experiment [1] (168 h) was found to be 11 nM; on Menin-MLL (setting [2]), 1.1 nM.
In the same order, the values of `CCN(C(=O)c1cc(F)ccc1-c1cc(C2CN([C@H](CCCN3CCO[C@H](CO)C3)C(C)C)C2)cn2c(C)ncc12)C(C)C` [Example 450] are 21 nM and 5.2 nM.
